Test results: patent US12144886B2, “Perineural administration of resiniferatoxin for treatment of maladaptive pain” (Sorrento Therapeutics, Inc., priority 2018, dated 2024)

Experiments:
[1] = system: declawed cat with maladaptive pain; test: Tolerance and safety of perineural RTX in a single declawed cat; type: in vivo
Experimental: The safety of the injection of RTX is assessed by comparing the results of a complete blood count (CBC) and a chemistry panel done at screening with the results obtained at day 14. Cats were also monitored for adverse events.
Tolerance, safety, and analgesic effects of RTX administration were evaluated in a single declawed cat with maladaptive pain. […] The cat also presented a self-limiting decreased appetite for 12 hours post injection.

[2] = system: declawed cats with chronic distal thoracic limb pain; test: Adverse events in open-label multicenter trial of perineural RTX in declawed cats; type: in vivo, cat; details: for Animals with self-limiting reactions related to the treatment: during recovery from anesthesia
Experimental: (§1) Cats suffering from severe bilateral chronic pain (more than 90 days) as a result of severe complications after onychectomy were enrolled in this study (an exploratory, open-label, multicenter clinical trial). Thirteen (13) cases were treated for initial pain and reduced quality of life (QoL). Then, bilateral perineural distal limb injections (ring block technique) were administered under general anesthesia (a combination of diphenhydramine, buprenorphine, dexmedetomidine, ketamine, and isoflurane). Following a published technique (Enomoto et al., 2016) for the nerve block of the manus of the cat, the total dose of RTX was equally distributed adjacent to the 1) superficial branch of the radial nerve, 2) dorsal branch of the ulnar nerve, 3) median nerve and superficial branch of the palmar branch of the ulnar nerve, and 4) deep branch of palmar branch of the ulnar nerve. A total of 2.5 ug (1.25 ug/1 mL per forelimb in Group 1, n=7) and 5 ug (2.5 ug/1 mL per forelimb in Group 2, n=6) of RTX was injected as a one-time treatment. Group 2 included the cat for which detailed results are provided in Example B above. Monitoring of QoL and pain for the following 28 days was accomplished using the Client-Specific Outcome Measures feline (CSOMf), the Feline Musculoskeletal Pain Index (FMPI), two post-injection physical examinations, and videography on days 3, 7, 14, and 28 post injections.

[3] = system: declawed cats with chronic distal thoracic limb pain; test: QoL and pain monitoring (CSOMf, FMPI, owner reports) in open-label trial of perineural RTX in declawed cats; type: in vivo, cat
Experimental: as §1

[4] = system: Crl:CD(SD) Sprague Dawley rats; test: Single dose nerve block injection safety study in rats with 14-day recovery; type: in vivo, rat; details: for Food consumption: Days 2 to 7
Excerpt: This study was directed to determining the safety of administering RTX, when given as a nerve block injection as a single dose to rats.
119 male and 119 female Crl:CD(SD) Sprague Dawley rats were obtained from Charles River Laboratories, Raleigh, NC. The animals were 10 weeks old and weighed between 212 and 482 g at the initiation of dosing.
The nerve block injection doses were given into the right thigh. The animals were temporarily restrained for dose administration. Animals were sedated via isoflurane inhalation for dose administration. The day of dosing for each animal was designated as Day 1. A necropsy was conducted for a recovery study animal that died on study, and specified tissues were retained. The animal was refrigerated prior to necropsy to minimize autolysis.
Toxicokinetic animals surviving until scheduled euthanasia were euthanized by carbon dioxide inhalation.
Main study and recovery animals were subjected to a complete necropsy examination. A board-certified veterinary pathologist was available for scheduled necropsies.
All statistical tests were conducted at the 5% significance level. All pairwise comparisons were conducted using two-sided tests.
The groups were compared using an overall one-way ANOVA F-test if Levene's test was not significant or the Kruskal-Wallis test if it was significant. […] Datasets with two groups were compared using a Dunnett's test (equivalent to t-test in Nevis 2012 tables) or Dunn's test (equivalent to Wilcoxon Rank-Sum test in Nevis 2012 tables).

[5] = one cat, 2.5 μg/forelimb perineural
[6] = 10 μg, both sexes, terminal euthanasia

C=C(C)[C@]12C[C@@H](C)[C@@]34O[C@](Cc5ccccc5)(O[C@@H]1[C@@H]3C=C(COC(=O)Cc1ccc(O)c(OC)c1)C[C@]1(O)C(=O)C(C)=C[C@@H]41)O2 [RTX, resiniferatoxin]
Allergic-like reactions ([1]; one cat): No signs of allergic-like reactions were observed | Edema or pain in the injected areas ([1]; one cat): no signs of edema or pain were present | Resolution of adverse events (panting, salivation) ([1]; one cat): resolved within two hours | Complications during RTX administration [1, 5]: No complications were observed | Tolerability of injection [1, 5]: generally well tolerated | Adverse events ([1]; one hour post-injection): panting and salivation | Duration of self-limiting decreased appetite ([1]; post injection, one cat): 12 h | Tolerability of perineural RTX at the described doses ([2]; 2.5 ug and 5 ug total per cat): well tolerated | Adverse event: hypersalivation ([2]; Group 1 (2.5 ug total)): 71.4% | Adverse event: panting ([2]; Group 1 (2.5 ug total)): 57.1% | Adverse event: vocalization ([2]; Group 1 (2.5 ug total)): 57.1% | AEs presented and resolved the same day of administration ([2]; Group 1 (2.5 ug total), 26/30): 86.6% | Animals with self-limiting reactions related to the treatment ([2]; Group 1 (2.5 ug total, 1.25 ug per forelimb, n=7)): 71.4% | Adverse event: hypersalivation ([2]; Group 2 (5 ug total)): 50% | Adverse event: panting ([2]; Group 2 (5 ug total)): 83.3% | Adverse event: vocalization ([2]; Group 2 (5 ug total)): 83.3% | AEs presented and resolved the same day of administration ([2]; Group 2 (5 ug total), 21/22): 95.4% | Animals with self-limiting reactions related to the treatment ([2]; Group 2 (5 ug total, 2.5 ug per forelimb, n=6)): 100% | AEs presented and resolved the same day of administration ([2]; both groups): more than 85% | Time to resolution of most common adverse events after treatment ([2]; both groups): ≤ 4 h | CSOMf and FMPI scores ([3]; 28-day monitoring period, 13 cats): clear improvement | Owner-reported natural and pathological adopted behaviors (QoL) ([3]; both groups): significant changes | Duration of improvements reported informally ([3]; in some cases): over 6 months | Treatment of distal thoracic limb pain ([3]; perineural injections, cats): can effectively treat | Food consumption ([4]; 2.5 μg, females only): statistically significant decrease | Unscheduled death ([4]; 2.5 μg, one recovery study female, unrelated to test article, attributed to aspiration-related foreign material/inflammation in the lung): found dead on Day 2 | Microscopic change in the skeletal muscle ([4]; 10 μg): myofiber degeneration/necrosis | Spleen microscopic correlate ([4]; 10 μg, both sexes): minimal decreased lymphoid cellularity of the white pulp | Thymus microscopic correlate ([4]; 10 μg, both sexes): minimal to mild decreased lymphoid cellularity | Spleen weights [4, 6]: Statistically significant lower absolute and relative spleen weights | Thymic weights [4, 6]: Lower absolute and relative thymic weights | Neutrophils ([4]; 10 μg, females only): statistically significant increase that remained increased after the recovery period | Mean body weight gain ([4]; 10 μg, females, Days 1 to 14): statistically significant decrease | Food consumption ([4]; 10 μg, males only): statistically significant decrease | Mean body weight gain ([4]; 10 μg, males, Days 1 to 2): statistically significant decrease | Microscopic change in the mammary gland (non-adverse) ([4]; >2.5 μg): single cell necrosis | Test article-related organ weight changes at end of recovery ([4]; end of the recovery period (Day 15)): not observed | Reversibility of microscopic changes ([4]; following a 14-day recovery period): fully recovered | Clinical chemistry parameters ([4]; rats): no adverse RTX (resiniferatoxin)-related changes | Tolerability as nerve block injection ([4]; rats, 0.625, 2.5, and 10 μg single dose): well tolerated | Differences in hematology, coagulation, clinical chemistry and urinalysis parameters ([4]; rats, all dose groups): not considered adverse or were not considered vehicle or test article related | no-observed-adverse-effect level (NOAEL) ([4]; rats, single nerve block injection): 10 µg | Mortality, organ weight, gross observations ([4]; single dose 0, 0.625, 2.5, or 10 μg): no test article-related mortality, differences in organ weight, or gross observations | Gross findings ([4]; terminal euthanasia or recovery period animals): No test article-related gross findings
